Activity calls are given as the source filed them. No cut-off for these calls is given here.
Key:
Histone deacetylase 1 = Histone deacetylase 1 (Homo sapiens, UniProt Q13547); assay: Inhibition of HDAC1 in human HeLa nuclear extracts incubated for 30 mins by fluorescence based assay; type: cell-free
PC-3 [1] = assay: Inhibition of colony formation in human PC-3 cells at 5 nM incubated for 24 hrs followed by replacement with fresh media and measured after 2 weeks by crystal violet staining based assay; type: functional, cell-based
Tubulin (Homo sapiens) = Tubulin (Homo sapiens) (UniProt P68371+Q9H4B7+P0DPH7+P68366+Q13509+Q71U36+P04350+Q3ZCM7+P07437+P68363+Q9BQE3+Q6PEY2+Q13885+Q9BVA1+Q9BUF5); assay: Inhibition of microtubule polymerization in human PC-3 cells assessed as fragmented microtubule filaments at 0.32 uM incubated for 6 hrs by immunofluorescent staining based confocal microscopy assay; type: cell-based
PC-3 [2] = assay: Induction of cell cycle arrest in human PC-3 cells assessed as G1 phase cells at 0.32 uM incubated for 24 hrs by PI staining based flow cytometry analysis (reference value: 56.17%); type: functional
PC-3 [3] = assay: Induction of apoptosis in human PC-3 cells assessed as early apoptotic cells at 0.16 uM incubated for 24 hrs by Annexin V-FITC and PI staining based flow cytometry (reference value: 1.32%); type: functional
PC-3 [4] = assay: Induction of apoptosis in human PC-3 cells assessed as viable cells at 0.32 uM incubated for 24 hrs by Annexin V-FITC and PI staining based flow cytometry (reference value: 97.5%); type: functional; details: read-out: Activity
PC-3 [5] = assay: Induction of apoptosis in human PC-3 cells assessed as downregulation of Bcl-2 expression at 0.08 to 0.32 uM by Western blotting analysis; type: functional, cell-based; details: dose 0.08-0.32 µM
PC-3 [6] = assay: Induction of ROS generation in human PC-3 cells at 0.16 uM incubated for 24 hrs by DCFH-DA staining based flow cytometry analysis (reference value: 2.63%); type: functional
HUVEC = assay: Anti-angiogenesis activity against HUVECs assessed as reduction in capillary like tubules at 0.1 to 1.6 uM incubated for 6 hrs by matrigel based microscopic analysis; type: functional, cell-based; details: Homo sapiens, dose 0.1-1.6 µM

Histone deacetylase 1, sequence (Q13547 whole entry): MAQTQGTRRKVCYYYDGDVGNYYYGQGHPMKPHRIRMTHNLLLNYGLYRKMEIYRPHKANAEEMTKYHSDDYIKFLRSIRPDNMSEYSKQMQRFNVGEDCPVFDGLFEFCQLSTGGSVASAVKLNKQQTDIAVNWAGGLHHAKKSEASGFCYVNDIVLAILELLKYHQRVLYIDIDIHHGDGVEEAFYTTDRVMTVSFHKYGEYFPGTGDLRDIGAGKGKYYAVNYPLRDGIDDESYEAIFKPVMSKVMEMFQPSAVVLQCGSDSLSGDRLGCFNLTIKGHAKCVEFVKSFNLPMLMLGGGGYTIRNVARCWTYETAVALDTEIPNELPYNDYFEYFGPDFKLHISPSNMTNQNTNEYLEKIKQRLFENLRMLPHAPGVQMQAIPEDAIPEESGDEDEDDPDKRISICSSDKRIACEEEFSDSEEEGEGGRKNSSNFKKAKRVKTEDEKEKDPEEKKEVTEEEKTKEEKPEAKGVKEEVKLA

IC50 (Histone deacetylase 1): 730 nM
inhibition (Tubulin (Homo sapiens)): Active
SMILES: COc1ccc(/C=C/C(=O)c2ccc(OC)c3c2OC(C)(C)C=C3)cc1NCC(=O)NO
inhibition (PC-3 [1]): Active
Activity (PC-3 [2]): 6%
Activity (PC-3 [3]): 15.5%
viability at 0.32 µM (PC-3 [4]): 27.6%
Activity (PC-3 [5]): Active
Activity (PC-3 [6]): 75.4%
Activity (HUVEC): Active

Source: ChEMBL document CHEMBL5506003, “Design and biological evaluation of dual tubulin/HDAC inhibitors based on millepachine for treatment of prostate cancer” (Eur J Med Chem, 2024)
